Assay results as given in patent US10351575B2, “Bicyclic urea, thiourea, guanidine and cyanoguanidine compounds useful for the treatment of pain” (Array BioPharma Inc., priority 2012, dated 2019).

Assays:
Assay in all cases: KinaseProfiler off-target kinase profiling
Assay type in all cases: biochemical
Settings in all cases: 10 μM, ATP near Km
[1] = biological target: PKAC-alpha (Homo sapiens (Human), UniProt P17612)
Summary of the method: (§1)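 Single-point profiling: the compound is run at 10 μM against the kinase, ATP being set near that enzyme's Km. Duplicate determinations are averaged and expressed as POC.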

[2] = biological target: BrSK2 (Homo sapiens (Human), UniProt Q8IWQ3)
Summary of the method: as §1

[3] = biological target: Haspin (Homo sapiens (Human), UniProt Q8TF76)
Summary of the method: as §1

[4] = biological target: DMPK (Homo sapiens (Human), UniProt Q09013)
Summary of the method: as §1

[5] = biological target: FAK2 (Homo sapiens (Human), UniProt Q14289)
Summary of the method: as §1

[6] = biological target: EphB1 (Homo sapiens (Human), UniProt P54762)
Summary of the method: as §1

[7] = biological target: NEK3 (Homo sapiens (Human), UniProt P51956)
Summary of the method: as §1

[8] = biological target: Plk1 (Homo sapiens (Human), UniProt P53350)
Summary of the method: as §1

[9] = biological target: PKD2 (Homo sapiens (Human), UniProt Q9BZL6)
Summary of the method: as §1

[10] = biological target: Ret (Homo sapiens (Human), UniProt P07949)
Summary of the method: as §1

[11] = biological target: CSK (Homo sapiens (Human), UniProt P41240)
Summary of the method: as §1

[12] = biological target: AKT1 (Homo sapiens (Human), UniProt P31749)
Summary of the method: as §1

[13] = biological target: PKCiota (Homo sapiens (Human), UniProt P41743)
Summary of the method: as §1

[14] = biological target: CAMK4 (Homo sapiens (Human), UniProt Q16566)
Summary of the method: as §1

[15] = biological target: DRAK1 (Homo sapiens (Human), UniProt Q9UEE5)
Summary of the method: as §1

[16] = biological target: Rsk3 (Homo sapiens (Human), UniProt Q15349)
Summary of the method: as §1

[17] = biological target: Met (Homo sapiens (Human), UniProt P08581)
Summary of the method: as §1

[18] = biological target: SRPK1 (Homo sapiens (Human), UniProt Q96SB4)
Summary of the method: as §1

[19] = biological target: LKB1 (Homo sapiens (Human), UniProt Q15831)
Summary of the method: as §1

[20] = biological target: ROCK-I (Homo sapiens (Human), UniProt Q13464)
Summary of the method: as §1

[21] = biological target: PASK (Homo sapiens (Human), UniProt Q96RG2)
Summary of the method: as §1

[22] = biological target: FGFR4 (Homo sapiens (Human), UniProt P22455)
Summary of the method: as §1

[23] = biological target: EphB4 (Homo sapiens (Human), UniProt P54760)
Summary of the method: as §1

[24] = biological target: p38alpha (Homo sapiens (Human), UniProt Q16539)
Summary of the method: as §1

[25] = biological target: AMPK(A1/B1/G1) (Homo sapiens (Human), UniProt Q13131)
Summary of the method: as §1

[26] = biological target: PKCbetaII (Homo sapiens (Human), UniProt P05771)
Summary of the method: as §1

[27] = biological target: PTK6 (Homo sapiens (Human), UniProt Q13882)
Summary of the method: as §1

[28] = biological target: IRAK1 (Homo sapiens (Human), UniProt P51617)
Summary of the method: as §1

[29] = biological target: PKCbetaI (Homo sapiens (Human), UniProt P05771)
Summary of the method: as §1

[30] = biological target: CK2alpha2 (Homo sapiens (Human), UniProt P19784)
Summary of the method: as §1

[31] = biological target: Ron (Homo sapiens (Human), UniProt Q04912)
Summary of the method: as §1

[32] = biological target: CK2 (Homo sapiens (Human), UniProt P68400)
Summary of the method: as §1

[33] = biological target: Rse (Homo sapiens (Human), UniProt Q06418)
Summary of the method: as §1

[34] = biological target: Tie2 (Homo sapiens (Human), UniProt Q02763)
Summary of the method: as §1

[35] = biological target: GRK6 (Homo sapiens (Human), UniProt P43250)
Summary of the method: as §1

[36] = biological target: IKKbeta (Homo sapiens (Human), UniProt O14920)
Summary of the method: as §1

[37] = biological target: PKCgamma (Homo sapiens (Human), UniProt P05129)
Summary of the method: as §1

[38] = biological target: mTOR/FKBP12 (Homo sapiens (Human), UniProt P42345)
Summary of the method: as §1

[39] = biological target: DAPK3 (Homo sapiens (Human), UniProt O43293)
Summary of the method: as §1

CK2, sequence (P68400 whole entry): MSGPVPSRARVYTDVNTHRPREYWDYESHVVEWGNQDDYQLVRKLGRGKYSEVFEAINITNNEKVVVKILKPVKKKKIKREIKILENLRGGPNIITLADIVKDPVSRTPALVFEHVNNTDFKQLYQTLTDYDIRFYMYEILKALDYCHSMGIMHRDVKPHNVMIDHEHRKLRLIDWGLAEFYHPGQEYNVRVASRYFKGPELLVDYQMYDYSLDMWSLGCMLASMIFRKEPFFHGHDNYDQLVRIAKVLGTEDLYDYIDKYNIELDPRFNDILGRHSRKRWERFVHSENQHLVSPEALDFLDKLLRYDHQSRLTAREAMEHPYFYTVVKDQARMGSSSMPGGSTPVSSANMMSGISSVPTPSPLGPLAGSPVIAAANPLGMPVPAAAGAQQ
CK2, sequence (P67870 whole entry partner): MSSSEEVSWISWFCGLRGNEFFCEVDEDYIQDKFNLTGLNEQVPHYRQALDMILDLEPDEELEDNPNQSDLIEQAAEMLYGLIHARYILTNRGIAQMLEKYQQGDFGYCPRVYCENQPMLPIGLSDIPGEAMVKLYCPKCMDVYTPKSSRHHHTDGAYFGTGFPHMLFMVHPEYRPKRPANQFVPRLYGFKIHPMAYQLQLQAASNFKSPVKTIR
Ret, sequence (P07949 29-1114): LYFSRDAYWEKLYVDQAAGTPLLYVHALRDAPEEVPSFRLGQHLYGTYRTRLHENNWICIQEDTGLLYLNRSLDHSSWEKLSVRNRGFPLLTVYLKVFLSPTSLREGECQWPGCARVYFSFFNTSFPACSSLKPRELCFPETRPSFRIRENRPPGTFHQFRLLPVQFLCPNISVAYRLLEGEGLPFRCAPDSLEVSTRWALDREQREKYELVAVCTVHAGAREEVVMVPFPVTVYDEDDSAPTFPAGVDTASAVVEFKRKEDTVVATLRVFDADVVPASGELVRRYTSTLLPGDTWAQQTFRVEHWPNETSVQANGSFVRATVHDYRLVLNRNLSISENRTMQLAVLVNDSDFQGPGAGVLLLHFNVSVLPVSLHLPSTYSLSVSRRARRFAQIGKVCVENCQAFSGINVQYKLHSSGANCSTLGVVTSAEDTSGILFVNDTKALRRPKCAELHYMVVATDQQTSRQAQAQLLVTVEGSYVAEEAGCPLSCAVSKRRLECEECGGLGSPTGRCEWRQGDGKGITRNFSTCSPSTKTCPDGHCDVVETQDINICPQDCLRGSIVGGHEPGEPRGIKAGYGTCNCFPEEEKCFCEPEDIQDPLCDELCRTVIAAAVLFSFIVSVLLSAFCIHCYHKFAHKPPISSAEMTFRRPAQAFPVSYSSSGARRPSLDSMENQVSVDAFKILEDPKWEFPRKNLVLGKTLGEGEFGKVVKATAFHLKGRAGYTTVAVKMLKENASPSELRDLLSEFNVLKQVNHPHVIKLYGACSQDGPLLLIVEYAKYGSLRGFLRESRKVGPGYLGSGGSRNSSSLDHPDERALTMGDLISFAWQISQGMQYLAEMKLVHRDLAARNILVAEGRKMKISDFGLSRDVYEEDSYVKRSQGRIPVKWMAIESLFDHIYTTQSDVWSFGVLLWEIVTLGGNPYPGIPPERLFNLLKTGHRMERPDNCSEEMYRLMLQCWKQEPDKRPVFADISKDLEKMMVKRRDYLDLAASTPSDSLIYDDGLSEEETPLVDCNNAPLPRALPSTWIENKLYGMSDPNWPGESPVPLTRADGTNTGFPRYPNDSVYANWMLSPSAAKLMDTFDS
mTOR/FKBP12, sequence (P42345 1362-2549): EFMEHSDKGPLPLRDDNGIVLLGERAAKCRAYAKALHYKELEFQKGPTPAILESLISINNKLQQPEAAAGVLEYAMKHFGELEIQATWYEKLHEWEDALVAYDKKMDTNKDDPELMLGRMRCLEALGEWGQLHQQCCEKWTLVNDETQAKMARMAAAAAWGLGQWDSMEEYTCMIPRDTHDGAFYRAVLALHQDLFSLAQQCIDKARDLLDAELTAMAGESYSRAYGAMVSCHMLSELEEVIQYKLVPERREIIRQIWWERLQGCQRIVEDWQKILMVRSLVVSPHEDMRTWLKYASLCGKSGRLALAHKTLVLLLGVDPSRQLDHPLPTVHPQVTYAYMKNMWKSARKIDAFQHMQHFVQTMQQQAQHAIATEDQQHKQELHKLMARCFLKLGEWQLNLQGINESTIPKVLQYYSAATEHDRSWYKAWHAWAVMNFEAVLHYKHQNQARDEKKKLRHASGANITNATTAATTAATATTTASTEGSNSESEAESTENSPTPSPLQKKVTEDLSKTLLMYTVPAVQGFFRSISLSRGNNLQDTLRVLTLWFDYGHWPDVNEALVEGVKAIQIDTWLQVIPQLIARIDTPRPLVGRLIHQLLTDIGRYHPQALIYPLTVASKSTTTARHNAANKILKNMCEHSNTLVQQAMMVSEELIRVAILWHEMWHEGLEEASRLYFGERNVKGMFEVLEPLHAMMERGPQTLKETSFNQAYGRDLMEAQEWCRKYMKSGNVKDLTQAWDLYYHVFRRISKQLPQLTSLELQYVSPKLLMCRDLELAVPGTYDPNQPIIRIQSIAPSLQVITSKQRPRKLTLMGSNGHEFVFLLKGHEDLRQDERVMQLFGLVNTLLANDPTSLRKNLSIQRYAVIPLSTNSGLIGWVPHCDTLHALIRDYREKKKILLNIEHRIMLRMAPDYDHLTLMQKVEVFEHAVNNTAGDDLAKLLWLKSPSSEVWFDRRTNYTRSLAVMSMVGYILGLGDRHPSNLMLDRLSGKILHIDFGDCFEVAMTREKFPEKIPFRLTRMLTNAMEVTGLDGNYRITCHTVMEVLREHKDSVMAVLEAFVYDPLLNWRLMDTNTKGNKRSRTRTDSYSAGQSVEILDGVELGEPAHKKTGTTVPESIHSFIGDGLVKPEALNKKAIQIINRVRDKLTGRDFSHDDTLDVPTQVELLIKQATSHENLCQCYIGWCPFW
NEK3, sequence (P51956 whole entry): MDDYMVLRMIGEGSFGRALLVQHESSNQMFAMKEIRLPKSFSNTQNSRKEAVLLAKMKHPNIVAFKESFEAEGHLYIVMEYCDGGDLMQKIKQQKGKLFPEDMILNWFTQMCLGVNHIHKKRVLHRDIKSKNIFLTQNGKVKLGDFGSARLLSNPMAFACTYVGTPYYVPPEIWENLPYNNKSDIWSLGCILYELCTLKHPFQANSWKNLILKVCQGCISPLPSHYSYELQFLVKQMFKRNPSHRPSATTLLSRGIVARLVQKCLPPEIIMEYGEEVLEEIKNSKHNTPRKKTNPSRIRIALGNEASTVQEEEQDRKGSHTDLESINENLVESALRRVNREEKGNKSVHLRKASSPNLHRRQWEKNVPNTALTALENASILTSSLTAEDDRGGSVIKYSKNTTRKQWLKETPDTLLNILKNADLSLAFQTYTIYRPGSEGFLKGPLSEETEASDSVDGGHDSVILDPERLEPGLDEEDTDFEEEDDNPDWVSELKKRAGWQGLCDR
Haspin, sequence (Q8TF76 whole entry): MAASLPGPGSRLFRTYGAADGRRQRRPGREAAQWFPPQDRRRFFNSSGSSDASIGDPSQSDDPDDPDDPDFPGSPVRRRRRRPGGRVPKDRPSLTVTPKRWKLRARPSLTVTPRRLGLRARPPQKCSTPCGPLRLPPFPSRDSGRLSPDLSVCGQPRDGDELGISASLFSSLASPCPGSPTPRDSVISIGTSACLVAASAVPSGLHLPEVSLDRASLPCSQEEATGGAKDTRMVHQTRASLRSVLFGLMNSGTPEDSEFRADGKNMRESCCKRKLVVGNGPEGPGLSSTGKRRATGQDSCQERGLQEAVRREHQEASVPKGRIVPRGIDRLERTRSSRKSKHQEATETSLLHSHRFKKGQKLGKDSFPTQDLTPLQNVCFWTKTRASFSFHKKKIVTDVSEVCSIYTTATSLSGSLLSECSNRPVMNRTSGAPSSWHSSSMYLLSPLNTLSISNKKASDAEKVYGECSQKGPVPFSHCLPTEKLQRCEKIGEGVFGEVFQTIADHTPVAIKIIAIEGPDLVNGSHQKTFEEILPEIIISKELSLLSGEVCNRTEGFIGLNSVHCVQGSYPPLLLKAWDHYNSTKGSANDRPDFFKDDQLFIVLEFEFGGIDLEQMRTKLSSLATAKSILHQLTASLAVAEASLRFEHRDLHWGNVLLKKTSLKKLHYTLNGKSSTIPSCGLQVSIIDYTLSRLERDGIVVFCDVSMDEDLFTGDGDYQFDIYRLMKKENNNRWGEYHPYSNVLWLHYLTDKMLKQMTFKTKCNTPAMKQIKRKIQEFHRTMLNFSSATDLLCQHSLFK
AKT1, sequence (P31749 whole entry): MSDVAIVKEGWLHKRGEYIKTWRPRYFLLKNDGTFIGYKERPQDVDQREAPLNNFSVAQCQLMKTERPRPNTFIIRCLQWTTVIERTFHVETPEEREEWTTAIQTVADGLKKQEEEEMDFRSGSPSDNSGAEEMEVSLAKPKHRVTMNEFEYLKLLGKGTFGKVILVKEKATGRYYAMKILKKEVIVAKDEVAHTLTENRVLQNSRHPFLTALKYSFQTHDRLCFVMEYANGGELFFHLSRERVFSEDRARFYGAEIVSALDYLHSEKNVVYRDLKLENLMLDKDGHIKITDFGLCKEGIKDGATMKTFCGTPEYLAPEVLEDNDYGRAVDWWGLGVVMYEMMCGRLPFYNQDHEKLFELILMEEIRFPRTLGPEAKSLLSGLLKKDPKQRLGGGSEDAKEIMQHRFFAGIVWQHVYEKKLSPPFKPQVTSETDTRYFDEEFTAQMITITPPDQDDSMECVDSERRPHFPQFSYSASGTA
p38alpha, sequence (Q16539 whole entry): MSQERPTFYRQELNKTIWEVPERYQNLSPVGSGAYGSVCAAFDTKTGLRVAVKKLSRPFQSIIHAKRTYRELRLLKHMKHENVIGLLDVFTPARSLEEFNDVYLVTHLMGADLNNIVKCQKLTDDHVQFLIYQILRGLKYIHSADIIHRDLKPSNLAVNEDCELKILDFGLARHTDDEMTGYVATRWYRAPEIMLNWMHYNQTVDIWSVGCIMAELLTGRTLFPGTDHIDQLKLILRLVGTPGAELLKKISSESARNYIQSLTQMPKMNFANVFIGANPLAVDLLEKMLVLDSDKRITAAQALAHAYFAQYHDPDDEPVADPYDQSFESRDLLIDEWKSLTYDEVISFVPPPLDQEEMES

Avg. POC [1]	Avg. POC [2]	Avg. POC [3]	Avg. POC [4]	Avg. POC [5]	Avg. POC [6]	Avg. POC [7]	Avg. POC [8]	Avg. POC [9]	Avg. POC [10]	Avg. POC [11]	Avg. POC [12]	Avg. POC [13]	Avg. POC [14]	Avg. POC [15]	Avg. POC [16]	Avg. POC [17]	Avg. POC [18]	Avg. POC [19]	Avg. POC [20]	Structure (SMILES)	other results
138.5 POC	139.5 POC	92.5 POC	105 POC	120 POC	108.5 POC	105 POC	95 POC	102 POC	118.5 POC	124 POC	130.5 POC	95.5 POC	137.5 POC	108.5 POC	106 POC	148.5 POC	122 POC	103.5 POC	116.5 POC	Cc1c(-c2cnn(C)c2)nn(-c2ccccc2)c1NC(=O)N[C@H]1CCCc2ccccc21 [Example 2, (S)-1-(1′,4-dimethyl-1-phenyl-1H,1′H-3,4′-bipyrazol-5-yl)-3-(1,2,3,4-tetrahydronaphthalen-1-yl)urea]	Avg. POC [21]: 143 POC; Avg. POC [22]: 124 POC; Avg. POC [23]: 118.5 POC; Avg. POC [24]: 102.5 POC; Avg. POC [25]: 152.5 POC; Avg. POC [26]: 95.5 POC; Avg. POC [27]: 129 POC; Avg. POC [28]: 107 POC; Avg. POC [29]: 99 POC; Avg. POC [30]: 125 POC; Avg. POC [31]: 106.5 POC; Avg. POC [32]: 107 POC; Avg. POC [33]: 109 POC; Avg. POC [34]: 126 POC; Avg. POC [35]: 103.5 POC; Avg. POC [36]: 116 POC; Avg. POC [37]: 102 POC; Avg. POC [38]: 105 POC; Avg. POC [39]: 125.5 POC
120.5 POC	147 POC	97 POC	104 POC	111 POC	114 POC	102 POC	98.5 POC	94 POC	85 POC	131.5 POC	105.5 POC	69.5 POC	113.5 POC	114 POC	90 POC	109 POC	97.5 POC	91 POC	116.5 POC	Cc1c(-c2cnn(C)c2)nn(-c2ccccc2)c1NC(=O)NC1CCOc2cc(F)ccc21 (stereo not drawn) [Example 12, 1-(1′,4-dimethyl-1-phenyl-1H,1′H-[3,4′-bipyrazol]-5-yl)-3-(7-fluorochroman-4-yl)urea]	Avg. POC [21]: 125.5 POC; Avg. POC [22]: 119 POC; Avg. POC [23]: 121 POC; Avg. POC [24]: 110 POC; Avg. POC [25]: 117 POC; Avg. POC [26]: 100 POC; Avg. POC [27]: 125.5 POC; Avg. POC [28]: 102.5 POC; Avg. POC [29]: 93.5 POC; Avg. POC [30]: 107.5 POC; Avg. POC [31]: 116.5 POC; Avg. POC [32]: 98 POC; Avg. POC [33]: 106 POC; Avg. POC [34]: 104.5 POC; Avg. POC [35]: 103 POC; Avg. POC [36]: 102 POC; Avg. POC [37]: 104.5 POC; Avg. POC [38]: 105.5 POC; Avg. POC [39]: 103 POC
116 POC	118 POC	92 POC	106 POC	104.5 POC	116.5 POC	105 POC	108 POC	102 POC	106.5 POC	118.5 POC	100 POC	85.5 POC	121 POC	125 POC	76.5 POC	81 POC	102.5 POC	95 POC	112 POC	Cc1c(-c2ccc(=O)n(C)c2)nn(-c2ccccc2)c1NC(=O)NC1CN(CC(F)(F)F)Cc2ccccc21 (stereo not drawn) [Example 26, 1-(4-methyl-3-(1-methyl-6-oxo-1,6-dihydropyridin-3-yl)-1-phenyl-1H-pyrazol-5-yl)-3-(2-(2,2,2-trifluoroethyl)-1,2,3,4-tetrahydroisoquinolin-4-yl)urea]	Avg. POC [21]: 124.5 POC; Avg. POC [22]: 123 POC; Avg. POC [23]: 115 POC; Avg. POC [24]: 104.5 POC; Avg. POC [25]: 122.5 POC; Avg. POC [26]: 99 POC; Avg. POC [27]: 121 POC; Avg. POC [28]: 110.5 POC; Avg. POC [29]: 89 POC; Avg. POC [30]: 114 POC; Avg. POC [31]: 101 POC; Avg. POC [32]: 110.5 POC; Avg. POC [33]: 109.5 POC; Avg. POC [34]: 106.5 POC; Avg. POC [35]: 100.5 POC; Avg. POC [36]: 103.5 POC; Avg. POC [37]: 99 POC; Avg. POC [38]: 107.5 POC; Avg. POC [39]: 103 POC
90 POC	128.5 POC	94 POC	98.5 POC	101.5 POC	145.5 POC	113 POC	108 POC	110.5 POC	100.5 POC	123 POC	92 POC	71 POC	102 POC	105.5 POC	92 POC	118.5 POC	99.5 POC	100 POC	103 POC	COCc1ccc2c(c1)C(NC(=O)Nc1c(C)c(-c3cnn(C)c3)nn1-c1ccccc1)COC2 (stereo not drawn) [Example 32, 1-(1′,4-dimethyl-1-phenyl-1H,1′H-[3,4′-bipyrazol]-5-yl)-3-(6-(methoxymethyl)isochroman-4-yl)urea]	Avg. POC [21]: 137 POC; Avg. POC [22]: 139.5 POC; Avg. POC [23]: 106 POC; Avg. POC [24]: 96.5 POC; Avg. POC [25]: 138.5 POC; Avg. POC [26]: 100.5 POC; Avg. POC [27]: 100 POC; Avg. POC [28]: 113.5 POC; Avg. POC [29]: 80 POC; Avg. POC [30]: 104 POC; Avg. POC [31]: 107 POC; Avg. POC [32]: 97 POC; Avg. POC [33]: 105 POC; Avg. POC [34]: 121 POC; Avg. POC [35]: 101 POC; Avg. POC [36]: 105.5 POC; Avg. POC [37]: 104 POC; Avg. POC [38]: 113.5 POC; Avg. POC [39]: 111 POC
